# From ChEMBL document CHEMBL5500349, “Discovery of ganoderic acid A (GAA) PROTACs as MDM2 protein degraders for the treatment of breast cancer” (Eur J Med Chem, 2024)
# The source made the active and inactive calls. The rule behind the calls is not given here.
# Experiments:
# [1] = system: MDA-MB-231; assay: Induction of apoptosis in human MDA-MB-231 cells assessed as reduction in bcl-2/bax ratio at 20 to 40 uM by Western blotting analysis; format: functional, cell-based; settings: dose 20-40 µM
# [2] = system: MDA-MB-231; assay: Antiproliferative activity against human MDA-MB-231 cells assessed as cell viability at 100 uM incubated for 48 to 72 hrs by MTT assay; format: functional; settings: time 48-72 hrs, read-out: Activity
# [3] = biological target: T1, von Hippel-Lindau disease tumor suppressor/E3 ubiquitin-protein ligase Mdm2 (Homo sapiens, UniProt Q00987+P40337); assay: Protac activity at VHL/MDM2 in human MDA-MB-231 cells assessed as reduction in MDM2 protein level after 48 hrs by Western blotting analysis; format: cell-based; settings: dose 20-80 µM
# Target sequence in this assay (P40337 whole entry, looked up): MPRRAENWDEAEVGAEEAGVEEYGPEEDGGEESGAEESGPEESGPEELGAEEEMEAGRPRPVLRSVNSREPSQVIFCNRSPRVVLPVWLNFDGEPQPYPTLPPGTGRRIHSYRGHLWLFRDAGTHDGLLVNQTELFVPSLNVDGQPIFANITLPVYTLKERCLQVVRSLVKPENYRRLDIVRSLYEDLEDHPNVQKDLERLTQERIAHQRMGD
# Target sequence in this assay (Q00987 whole entry, looked up): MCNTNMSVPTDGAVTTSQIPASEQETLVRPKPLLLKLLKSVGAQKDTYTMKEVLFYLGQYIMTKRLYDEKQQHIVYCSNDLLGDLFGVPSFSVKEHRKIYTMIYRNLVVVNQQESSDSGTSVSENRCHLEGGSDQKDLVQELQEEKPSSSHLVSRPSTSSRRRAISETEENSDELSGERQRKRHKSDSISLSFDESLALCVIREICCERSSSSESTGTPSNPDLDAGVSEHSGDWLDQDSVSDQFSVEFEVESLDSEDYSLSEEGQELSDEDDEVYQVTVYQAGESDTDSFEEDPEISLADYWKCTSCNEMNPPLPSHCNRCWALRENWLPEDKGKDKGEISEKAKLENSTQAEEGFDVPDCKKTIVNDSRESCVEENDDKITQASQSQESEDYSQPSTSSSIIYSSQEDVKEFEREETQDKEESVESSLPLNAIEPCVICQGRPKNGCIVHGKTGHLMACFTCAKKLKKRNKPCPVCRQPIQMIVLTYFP
# [4] = system: MDA-MB-231; assay: Induction of cell cycle arrest in human MDA-MB-231 cells assessed as decrease in number of S phase cells at 80 uM after 48 hrs by PI/RNase staining based flow cytometry analysis; format: functional
# [5] = system: MDA-MB-231; assay: Induction of apoptosis in human MDA-MB-231 cells assessed as necrotic cells at 80 uM incubated for 48 hrs by Annexin-V FITC/PI staining based flow cytometry analysis (reference value: 0.26%); format: functional
# [6] = system: MDA-MB-231; assay: Induction of apoptosis in human MDA-MB-231 cells assessed as viable cells at 80 uM incubated for 48 hrs by Annexin-V FITC/PI staining based flow cytometry analysis (reference value: 90.3%); format: functional; settings: read-out: Activity
# [7] = system: MCF7; assay: Antiproliferative activity against human MCF7 cells assessed as cell viability at 100 uM incubated for 48 to 72 hrs by MTT assay; format: functional; settings: time 48-72 hrs, read-out: Activity
# [8] = biological target: T2, E3 ubiquitin-protein ligase Mdm2 (Homo sapiens, UniProt Q00987); assay: Binding affinity to MDM2 (unknown origin) assessed as increase in protein stability incubated for 30 mins by CETSA
# Target sequence in this assay (Q00987 whole entry, looked up): as above
# [9] = system: MDA-MB-231; assay: Induction of cell cycle arrest in human MDA-MB-231 cells assessed as increase in number of G2 phase cells at 80 uM after 48 hrs by PI/RNase staining based flow cytometry analysis; format: functional
# [10] = system: MDA-MB-231; assay: Induction of apoptosis in human MDA-MB-231 cells assessed as late apoptotic cells at 80 uM incubated for 48 hrs by Annexin-V FITC/PI staining based flow cytometry analysis (reference value: 6.04%); format: functional
# [11] = system: MDA-MB-231; assay: Induction of G1/S phase arrest in human MDA-MB-231 cells assessed as increase in p21 mRNA expression at 20 to 80 uM by qRT-PCR analysis; format: functional, cell-based; settings: dose 20-80 µM
# [12] = Toxicity in zebrafish assessed as mortality rate at 25 ug/ml; design: species or system Danio rerio; settings: in vivo, at 25 µg/mL, read-out: Activity
# [13] = Toxicity in zebrafish assessed as mortality rate at 100 ug/ml; design: species or system Danio rerio; settings: in vivo, at 100 µg/mL, read-out: Activity
# [14] = system: MDA-MB-231; assay: Antitumor activity against human MDA-MB-231 cells xenografted in zebrafish assessed as inhibition rate at 25 ug/ml after 2 days by fluorescence microscopic method; format: functional; design: scale not given: the % may be the effect or the level left; settings: dose 25 µg/ml; time 2 day
# [15] = biological target: T1, von Hippel-Lindau disease tumor suppressor/E3 ubiquitin-protein ligase Mdm2; assay: Protac activity at VHL/MDM2 in human MDA-MB-231 cells assessed as reduction in MDM2 protein level at 80 uM pretreated with MG-132 for 2 hrs followed by compound addition and measured after 48 hrs by Western blotting analysis; format: cell-based
# Target sequence in this assay (P40337 whole entry, looked up): as the sequence (P40337 whole entry, looked up) above
# Target sequence in this assay (Q00987 whole entry, looked up): as the sequence (Q00987 whole entry, looked up) above
# [16] = biological target: T1, von Hippel-Lindau disease tumor suppressor/E3 ubiquitin-protein ligase Mdm2; assay: Protac activity at VHL/MDM2 in human MDA-MB-231 cells assessed as reduction in MDM2 protein level at 80 uM after 48 hrs by Western blotting analysis; format: cell-based; design: scale not given: the % may be the effect or the level left
# Target sequence in this assay (P40337 whole entry, looked up): as the sequence (P40337 whole entry, looked up) above
# Target sequence in this assay (Q00987 whole entry, looked up): as the sequence (Q00987 whole entry, looked up) above
# [17] = system: MDA-MB-231; assay: Induction of G2/M phase arrest in human MDA-MB-231 cells assessed as decrease in cyclin B1 protein expression at 20 to 80 uM by Western blotting analysis; format: functional, cell-based; settings: dose 20-80 µM
# [18] = system: MDA-MB-231; assay: Induction of cell cycle arrest in human MDA-MB-231 cells assessed as increase in number of G1 phase cells at 80 uM after 48 hrs by PI/RNase staining based flow cytometry analysis; format: functional
# [19] = biological target: T1, von Hippel-Lindau disease tumor suppressor/E3 ubiquitin-protein ligase Mdm2; assay: Protac activity at VHL/MDM2 in human MDA-MB-231 cells assessed as upregulation of p21 level at 20 to 80 uM after 48 hrs by Western blotting analysis; format: cell-based; settings: dose 20-80 µM
# Target sequence in this assay (P40337 whole entry, looked up): as the sequence (P40337 whole entry, looked up) above
# Target sequence in this assay (Q00987 whole entry, looked up): as the sequence (Q00987 whole entry, looked up) above
# [20] = system: MDA-MB-231; assay: Induction of apoptosis in human MDA-MB-231 cells assessed as early apoptotic cells at 80 uM incubated for 48 hrs by Annexin-V FITC/PI staining based flow cytometry analysis (reference value: 3.37%); format: functional
# [21] = Toxicity in zebrafish assessed as death at < 50 ug/ml; design: species or system Danio rerio; settings: in vivo, dose < 50 µg/ml
# [22] = Toxicity in zebrafish assessed as mortality rate at 6.25 ug/ml; design: species or system Danio rerio; settings: in vivo, at 6.25 µg/mL, read-out: Activity
# [23] = Toxicity in zebrafish assessed as mortality rate at 50 ug/ml; design: species or system Danio rerio; settings: in vivo, at 50 µg/mL, read-out: Activity
# [24] = system: HepG2; assay: Antiproliferative activity against human HepG2 cells assessed as cell viability at 100 uM incubated for 48 to 72 hrs by MTT assay; format: functional; settings: time 48-72 hrs, read-out: Activity
# [25] = system: MDA-MB-231; assay: Induction of apoptosis in human MDA-MB-231 cells assessed as viable cells at 20 uM incubated for 48 hrs by Annexin-V FITC/PI staining based flow cytometry analysis (reference value: 90.3%); format: functional; settings: read-out: Activity
# [26] = system: MDA-MB-231; assay: Induction of apoptosis in human MDA-MB-231 cells assessed as necrotic cells at 40 uM incubated for 48 hrs by Annexin-V FITC/PI staining based flow cytometry analysis (reference value: 0.26%); format: functional
# [27] = system: MDA-MB-231; assay: Induction of apoptosis in human MDA-MB-231 cells assessed as necrotic cells at 20 uM incubated for 48 hrs by Annexin-V FITC/PI staining based flow cytometry analysis (reference value: 0.26%); format: functional
# [28] = system: MDA-MB-231; assay: Induction of apoptosis in human MDA-MB-231 cells assessed as early apoptotic cells at 20 uM incubated for 48 hrs by Annexin-V FITC/PI staining based flow cytometry analysis (reference value: 3.37%); format: functional
# [29] = system: MDA-MB-231; assay: Induction of apoptosis in human MDA-MB-231 cells assessed as viable cells at 40 uM incubated for 48 hrs by Annexin-V FITC/PI staining based flow cytometry analysis (reference value: 90.3%); format: functional; settings: read-out: Activity
# [30] = system: MDA-MB-231; assay: Downregulation of MDM2 expression in human MDA-MB-231 cells at 20 to 80 uM incubated for 48 hrs by immunofluorescence analysis; format: functional, cell-based; settings: dose 20-80 µM
# [31] = biological target: T2, E3 ubiquitin-protein ligase Mdm2; assay: Binding affinity to MDM2 (unknown origin) by SPR assay
# Target sequence in this assay (Q00987 whole entry): as the sequence (Q00987 whole entry, looked up) above
# [32] = Toxicity in zebrafish assessed as appearance of toxic phenotype at < 50 ug/ml; design: species or system Danio rerio; settings: in vivo, dose < 50 µg/ml
# [33] = Toxicity in zebrafish assessed as mortality rate at 12.5 ug/ml; design: species or system Danio rerio; settings: in vivo, at 12.5 µg/mL, read-out: Activity
# [34] = system: MDA-MB-231; assay: Inhibition of cell migration in human MDA-MB-231 cells at 80 uM incubated for 24 hrs by wound healing assay; format: functional, cell-based
# [35] = Toxicity in zebrafish assessed as minimum toxic concentration measured after 2 days; design: species or system Danio rerio; settings: in vivo, 48 h, time 2 day
# [36] = system: MDA-MB-231; assay: Antitumor activity against human MDA-MB-231 cells xenografted in zebrafish assessed as inhibition rate at 12.5 ug/ml after 2 days by fluorescence microscopic method; format: functional; design: scale not given: the % may be the effect or the level left; settings: dose 12.5 µg/ml; time 2 day
# [37] = Cytotoxicity against mouse HT-22 cells assessed as cell viability at 100 uM incubated for 48 to 72 hrs by MTT assay; format: toxicity, cell-based; settings: time 48-72 hrs, read-out: Activity
# [38] = system: MDA-MB-231; assay: Induction of apoptosis in human MDA-MB-231 cells assessed as late apoptotic cells at 20 uM incubated for 48 hrs by Annexin-V FITC/PI staining based flow cytometry analysis (reference value: 6.04%); format: functional
# [39] = system: MDA-MB-231; assay: Inhibition of cell migration in human MDA-MB-231 cells at 80 uM incubated for 48 hrs by wound healing assay; format: functional, cell-based
# [40] = system: MDA-MB-231; assay: Induction of apoptosis in human MDA-MB-231 cells assessed as late apoptotic cells at 40 uM incubated for 48 hrs by Annexin-V FITC/PI staining based flow cytometry analysis (reference value: 6.04%); format: functional
# [41] = system: MDA-MB-231; assay: Antitumor activity against human MDA-MB-231 cells xenografted in zebrafish assessed as inhibition rate at 50 ug/ml after 2 days by fluorescence microscopic method; format: functional; design: scale not given: the % may be the effect or the level left; settings: dose 50 µg/ml; time 2 day
# [42] = system: SJSA-1; assay: Antiproliferative activity against human SJSA-1 cells assessed as cell viability at 100 uM incubated for 48 to 72 hrs by MTT assay; format: functional; settings: time 48-72 hrs, read-out: Activity
# [43] = system: MDA-MB-231; assay: Upregulation of p21 expression in human MDA-MB-231 cells at 20 to 80 uM incubated for 48 hrs by immunofluorescence analysis; format: functional, cell-based; settings: dose 20-80 µM
# [44] = system: MDA-MB-231; assay: Induction of apoptosis in human MDA-MB-231 cells assessed as early apoptotic cells at 40 uM incubated for 48 hrs by Annexin-V FITC/PI staining based flow cytometry analysis (reference value: 3.37%); format: functional
# [45] = biological target: T1, von Hippel-Lindau disease tumor suppressor/E3 ubiquitin-protein ligase Mdm2; assay: Protac activity at VHL/MDM2 in human MCF7 cells assessed as reduction in MDM2 protein level at 100 uM pretreated with MG-132 for 2 hrs followed by compound addition and measured after 48 hrs by Western blotting analysis; format: cell-based
# Target sequence in this assay (P40337 whole entry, looked up): as the sequence (P40337 whole entry, looked up) above
# Target sequence in this assay (Q00987 whole entry, looked up): as the sequence (Q00987 whole entry, looked up) above
# [46] = biological target: T1, von Hippel-Lindau disease tumor suppressor/E3 ubiquitin-protein ligase Mdm2; assay: Protac activity at VHL/MDM2 in human MCF7 cells assessed as upregulation of p53 level at 75 to 105 uM after 48 hrs by Western blotting analysis; format: cell-based; settings: dose 75-105 µM
# Target sequence in this assay (P40337 whole entry, looked up): as the sequence (P40337 whole entry, looked up) above
# Target sequence in this assay (Q00987 whole entry, looked up): as the sequence (Q00987 whole entry, looked up) above
# [47] = biological target: T1, von Hippel-Lindau disease tumor suppressor/E3 ubiquitin-protein ligase Mdm2; assay: Protac activity at VHL/MDM2 in human MCF7 cells assessed as upregulation of p21 level at 75 to 105 uM after 48 hrs by Western blotting analysis; format: cell-based; settings: dose 75-105 µM
# [48] = biological target: T1, von Hippel-Lindau disease tumor suppressor/E3 ubiquitin-protein ligase Mdm2; assay: Protac activity at VHL/MDM2 in human MCF7 cells assessed as reduction in MDM2 protein level after 48 hrs by Western blotting analysis; format: cell-based
structure (smiles),measurement,setting,value
Cc1ncsc1-c1ccc([C@H](C)NC(=O)[C@@H]2C[C@@H](O)CN2C(=O)[C@@H](NC(=O)CCCCc2cn(CCOCCOCCOCCOCCNC(=O)[C@H](C)CC(=O)C[C@@H](C)[C@H]3C[C@H](O)[C@@]4(C)C5=C(C(=O)C[C@]34C)[C@@]3(C)CCC(=O)C(C)(C)[C@@H]3C[C@@H]5O)nn2)C(C)(C)C)cc1,Activity,[1],Active
same,viability at 100 µM,[2],16.9%
same,Activity,[3],Dose-Dependent Effect
same,Activity,[4],Active
same,Activity,[5],0.82%
same,viability at 80 µM,[6],41.4%
same,viability at 100 µM,[7],30.6%
same,Activity,[8],Active
same,Activity,[9],Active
same,Activity,[10],10.4%
same,Activity,[11],Active
same,mortality at 25 ug/ml,[12],0%
same,mortality at 100 ug/ml,[13],13%
same,Activity,[14],23.4%
same,Activity,[15],inactive
same,Activity,[16],51%
same,Activity,[17],Active
same,Activity,[18],Active
same,Activity,[19],Active
same,Activity,[20],47.4%
same,Activity,[21],Non-Toxic
same,mortality at 6.25 ug/ml,[22],0%
same,mortality at 50 ug/ml,[23],0%
same,viability at 100 µM,[24],92.9%
same,viability at 20 µM,[25],90.1%
same,Activity,[26],0.13%
same,Activity,[27],0.21%
same,Activity,[28],4.38%
same,viability at 40 µM,[29],82.3%
same,Activity,[30],Active
same,Kd,[31],38.2 µM
same,Activity,[32],Non-Toxic
same,mortality at 12.5 ug/ml,[33],0%
same,inhibition,[34],Active
same,MTC,[35],50 µg/mL
same,Activity,[36],16.8%
same,viability at 100 µM,[37],91.3%
same,Activity,[38],5.34%
same,inhibition,[39],Active
same,Activity,[40],10.4%
same,Activity,[41],27.2%
same,viability at 100 µM,[42],61.3%
same,Activity,[43],Active
same,Activity,[44],7.17%
Cc1ncsc1-c1ccc([C@H](C)NC(=O)[C@@H]2C[C@@H](O)CN2C(=O)[C@@H](NC(=O)CCCCc2cn(CCOCCOCCOCCNC(=O)[C@H](C)CC(=O)C[C@@H](C)[C@H]3C[C@H](O)[C@@]4(C)C5=C(C(=O)C[C@]34C)[C@@]3(C)CCC(=O)C(C)(C)[C@@H]3C[C@@H]5O)nn2)C(C)(C)C)cc1,viability at 100 µM,[2],35.4%
same,viability at 100 µM,[7],24.9%
same,Activity,[45],inactive
same,viability at 100 µM,[24],90.2%
same,Activity,[46],Active
same,Kd,[31],32.4 µM
same,Activity,[47],Active
same,viability at 100 µM,[37],91.8%
same,viability at 100 µM,[42],69.6%
same,Activity,[48],Dose-Dependent Effect
same,DC50,[48],100 µM
